Earlier results in patent US20120302639A1, “OMEGA 3 FORMULATIONS FOR TREATMENT OF RISK FACTORS FOR CARDIOVASCULAR DISEASE AND PROTECTION AGAINST SUDDEN DEATH” (PIVOTAL THERAPEUTICS INC., priority 2011, published 2012).

Conditions: ALOGPS, as reported by Tetko et al. 2005

theoretical Log P | SMILES
6.53 | CC/C=C\C/C=C\C/C=C\C/C=C\C/C=C\CCCC(=O)O [EPA, Eicosapentaenoic acid]
6.83 | CC/C=C\C/C=C\C/C=C\C/C=C\C/C=C\C/C=C\CCC(=O)O [DHA, Docosahexaenoic acid]
